Assay results from patent US10801054B2 (priority 2013, dated 2020).
Values joined by “and” are separate entries in the source; they are usually repeats but may differ in a detail not shown here. Equal values may be shown once.

Tested on: Phage litmus

CCO [EtOH, ethanol]
Color change of Phage litmus bands upon exposure: immediately changed color | Red-green-blue (RGB) color differences G3: 3.32 and 2.87 and 2.98 | Red-green-blue (RGB) color differences R1: 1.22 and 1.81 and 1.06 | Red-green-blue (RGB) color differences R3: 2.54 and 1.97 and 2.26 | Time in which all color matrices of the Phage litmus responded: 30 s

CCOCC [Ether, diethyl ether]
Color change of Phage litmus bands upon exposure: immediately changed color | Red-green-blue (RGB) color differences G1: 0.38 and 0.56 and 0.39 | Red-green-blue (RGB) color differences R1: 1.31 and 1.20 and 1.24 | Red-green-blue (RGB) color differences R3: 1.15 and 1.53 and 0.91 | Red-green-blue (RGB) color differences R4: 1.30 and 1.54 and 1.12 | Time in which all color matrices of the Phage litmus responded: 30 s

CCCCCC [Hexane, n-hexane]
Color change of Phage litmus bands upon exposure: immediately changed color | Red-green-blue (RGB) color differences R3: 0.69 and 0.99 and 0.53 | Time in which all color matrices of the Phage litmus responded: 30 s
